| Compound | melting point |
| --- | --- |
| CCC(C)NC(=O)C1CC(C)Nc2ccccc21 (stereo not given) | 121 to 123 °C |
| Cc1nc(Cl)cc(-n2ccnc2)n1 | 114 to 116 °C |
| CC(C)NS(=O)(=O)c1ccc(NN)nc1 | 141 to 143 °C |
| O=C(O)c1cc(N2CCNC2=O)c(F)cc1F | 246 to 248 °C |
| O=C(O)c1cc(F)c(F)cc1I | 127 to 129 °C |
| NC(=O)CC1CCCCN1 (stereo not given) | 108 to 110 °C |
| O=C1CC2(CCCC2)C(=O)O1 | 33 to 35 °C |
| NC(=S)c1cnn(-c2ccccc2)c1 | 181 to 183 °C |
| Nc1ccc(-c2nc3ccc(N)cc3[nH]2)cc1 | 234 to 236 °C |
| CC(=N\O)/C(C)=N/O | 240 to 241 °C |
| CNCCCc1cc(-c2ccccc2)n[nH]1 | 98 to 100 °C |
| O=C(Cc1ccccc1F)N1CCNCC1 | 77 to 79 °C |
| COc1cccc(C(N)=S)c1OC | 146 to 148 °C |
| CS(=O)(=O)c1cccc(C(=O)c2ccc(F)cc2F)c1 | 129 to 131 °C |
| Cc1ccc2sc(C3CCNCC3)nc2c1 | 111 to 113 °C |
| COc1ccc(OC)c2[nH]c(C(=O)O)cc12 | 201 to 203 °C |
| Cc1ccc(NC(=O)CCl)c(Cl)c1 | 98 to 100 °C |
| Brc1ccc(NCc2ccsc2)cc1 | 44 to 46 °C |
| CC(=O)Nc1ccc(Br)c(C(=O)O)n1 | 189 to 191 °C |
| Cn1ncc2c(=O)[nH]nnc21 | 152 to 154 °C |
| CCCOC(=O)c1cc(-c2cncnc2)ccc1N | 145 to 147 °C |
| Nc1sc2c(c1C(=O)c1ccc(C(F)(F)F)cc1)CCC2 | 200 to 202 °C |
| CC(C)n1ncc(C(=O)O)c1N | 109 to 111 °C |
| CCC(CC)n1nc(C)cc1C(=O)O | 149 to 151 °C |
| COc1cc(CCC(=O)O)ccc1Cl | 132 to 134 °C |
| Nc1ccc(C(=O)N2CCCCC2)nc1 | 170 to 172 °C |
| BrCCC12CC3CC(CC(C3)C1)C2 | 56 to 58 °C |

| Compound | melting point |
| --- | --- |
| CNC1CCCN(c2ccccc2)C1=O (stereo not given) | 76 to 78 °C |
| Fc1cc(CCl)c2c(c1)COC(c1ccccc1)O2 (stereo not given) | 61 to 65 °C |
| CC(=O)c1nnn(-c2ccc(Cl)cc2)c1C | 113 to 115 °C |
| CCOc1cc(C=CC(=O)O)ccc1OCC(C)C | 72 to 74 °C |
| Nc1cccc(N2CCNC2=O)c1 | 149 to 151 °C |
| Cc1ccc(Oc2ccc3[nH]c(C)c(C)c(=O)c3c2)cc1 | 284 to 286 °C |
| O=C(CCl)NC(Cc1ccccc1)c1ccccc1 (stereo not given) | 219 to 221 °C |
| CNC(=O)CNC(=S)NN | 156 to 158 °C |
| COc1ccc(C=C2CCCc3c2nc2ccccc2c3C(=O)O)cc1OC | 110 to 114 °C |
| COC(=O)c1ccc(Cl)nc1Cl | 56 to 58 °C |
| Clc1ccc(N2CCNCC2)nc1 | 64 to 66 °C |
| CN1CC(=O)N(c2cccc([N+](=O)[O-])c2)C1=O | 144 to 146 °C |
| O=C(O)CCC1NC(=O)NC1=O (stereo not given) | 169 to 171 °C |
| Nc1nc2c(F)c(F)ccc2s1 | 49 to 51 °C |
| Cc1ccc(-n2cc(S(=O)(=O)Cl)cn2)cc1S(=O)(=O)Cl | 114 to 116 °C |
| CC1(c2ccc(O)cc2)NC(=O)NC1=O (stereo not given) | 240 to 242 °C |
| Cc1nc(=N)c(C)c(C)[nH]1 | 196 to 198 °C |
| CCOc1cccc2c1OCC(C(=O)O)C2 (stereo not given) | 160 to 162 °C |
| Cc1[nH]c(=O)c(C(=O)O)cc1-c1ccccc1 | 258 to 260 °C |
| O=C(CCl)Nc1ccc(C(=O)O)cc1 | 230 to 232 °C |
| Clc1cc(CBr)c2ncccc2c1 | 116 to 118 °C |
| CCOC(=O)c1ncon1 | 31 to 33 °C |
| O=C(O)c1cc(-c2cccc(F)c2)no1 | 189 to 191 °C |
| CCC(C)n1nc(N)cc1C (stereo not given) | 54 to 56 °C |
| Nc1cccc(NC(=O)CCn2cccn2)c1 | 104 to 106 °C |
| Cc1nc(Cl)c2c3c(sc2n1)CC(C)CC3 (stereo not given) | 89 to 91 °C |
| Cc1ccc(CNC(=O)c2ccccc2NC(=O)CCl)cc1 | 150 to 152 °C |

| Compound | melting point |
| --- | --- |
| CCOC(=O)Cc1nc2cc(C)c(C)cc2[nH]1 | 169 to 171 °C |
| Clc1ccc(SC2CCNCC2)cc1 | 41 to 43 °C |
| Nc1ccnc(Oc2ccccc2Cl)c1 | 121 to 123 °C |
| O=C(NCCS(=O)(=O)Cl)OCc1ccccc1 | 39 to 41 °C |
| O=S(=O)(Cl)c1cn[nH]c1 | 99 to 101 °C |
| CC(=O)c1ccc(C)c(S(N)(=O)=O)c1 | 144 to 146 °C |
| CCS(=O)(=O)CC(=O)O | 57 to 59 °C |
| Cc1cc(C)n(-c2ccc(C(N)=NO)cn2)n1 | 139 to 141 °C |
| N#Cc1cccc(NC(=O)CSc2ccccc2C(=O)O)c1 | 118 to 120 °C |
| O=C(O)C1(c2ccccc2F)CC1 | 106 to 108 °C |
| O=C(O)c1c[nH]cc1-c1ccc(F)cc1 | 199 to 201 °C |
| COc1cc(C(=O)O)cc(CC(C)Cl)c1OC (stereo not given) | 103 to 105 °C |
| CC(C)N1C(=O)CNCC1(C)C | 85 to 87 °C |
| CC(C)CC(NS(C)(=O)=O)C(=O)O (stereo not given) | 67 to 69 °C |
| CC(C)(C)n1cc(C(=O)O)c(-c2ccccc2Cl)n1 | 164 to 166 °C |
| CCOC(=O)COc1ccccc1C(=O)O | 100 to 102 °C |
| Nc1nc2c(s1)CC(c1ccccc1)CC2 (stereo not given) | 181 to 183 °C |
| Cc1cn2c(CO)c(C)nc2s1 | 149 to 151 °C |
| O=C(O)CSC(O)C(=O)c1ccccc1 (stereo not given) | 113 to 115 °C |
| Cc1cnn(CC(=O)O)c1 | 172 to 174 °C |
| CNC(=O)c1cccc(C#N)c1 | 140 to 142 °C |
| CC(CC(=O)O)(CC(=O)O)c1ccccc1 | 136 to 138 °C |
| CC(=O)NC(CC(=O)O)c1ccccc1 (stereo not given) | 165 to 167 °C |
| Cc1cc(N)n(C(C)(C)C)n1 | 66 to 68 °C |
| O=Cc1ccc(OCc2cscn2)cc1 | 78 to 80 °C |
| O=Cc1cc(Br)ccc1OCc1ccccc1 | 61 to 63 °C |
| OCC(c1ccc(Cl)cc1)N1CCNCC1 (stereo not given) | 116 to 118 °C |

| Compound | melting point |
| --- | --- |
| CC(C)C(CN)C(=O)O (stereo not given) | 249 to 251 °C |
| O=C(O)CCCCN1CCOCC1 | 99 to 101 °C |
| NC(CCN1CCOCC1)=NO | 159 to 161 °C |
| CC1(C(=O)O)CCCN(C(=O)c2ccccc2)C1 (stereo not given) | 151 to 153 °C |
| Cc1nc2sccc2c(=O)n1N | 181 to 183 °C |
| CC(C)(O)c1ccc(Br)cc1 | 42 to 44 °C |
| CSc1c(F)cc(N)cc1F | 91 to 93 °C |
| CS(=O)(=O)Cc1cccc(S(=O)(=O)Cl)c1 | 142 to 144 °C |
| O=Cc1c[nH]c2ncccc12 | 211 to 213 °C |
| Cc1cc2ccccc2n1CC(=O)O | 184 to 186 °C |
| CC(O)Cc1cc(F)cc(Br)c1 (stereo not given) | 39 to 41 °C |
| CSc1nc(-c2ccc(F)cc2)nc(C)c1C(=O)O | 231 to 233 °C |
| Nc1c(-c2ccccc2)nc2sccn12 | 148 to 152 °C |
| OC(c1ccccc1)c1cccc(Cl)c1Cl (stereo not given) | 79 to 81 °C |
| O=C(O)CCNC(=O)C1CCC1 | 105 to 107 °C |
| COc1ccc(C(=O)O)nc1I | 189 to 191 °C |
| CCn1c(N)nc2cc(C#N)ccc21 | 189 to 191 °C |
| Cc1ccc(Br)cc1N | 31 to 33 °C |
| Cc1nnc(NCCC(C)C)c2ccccc12 | 129 to 131 °C |
| CCS(=O)(=O)N1Cc2ccccc2CC1C(=O)O (stereo not given) | 110 to 114 °C |
| Nc1ccc(C(=O)N2CCOCC2)cc1 | 134 to 136 °C |
| O=C(O)CNC(=O)c1c(Cl)cccc1[N+](=O)[O-] | 186 to 188 °C |
| O=C(O)CN1CCCC1=O | 125 to 135 °C |
| CCOC(=O)Nc1cccc(O)c1 | 95 to 97 °C |
